Source: paper PMC9250534, “Synthesis and direct assay of large macrocycle diversities by combinatorial late-stage modification at picomole scale” (Nature Communications, 2022)

Target: MDM2 (Homo sapiens, UniProt Q00987)
Assay: MDM2 binding screen of Libraries 3 and 4: displacement of fluorescent probe F-M8 at 750 nM macrocycle
In short: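 Competition with nutlin-3a was run using the fluorescein conjugate. Library members came from scaffolds reacted 6 h at room temperature with carboxylic acids (20 equiv.), HBTU and DABCO in DMSO. Quenching was overnight in Tris-Cl pH 7.4 buffer with 0.01% Tween20.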

[1] = Panel b, Library 3: 63 scaffolds combinatorially acylated with 15 carboxylic acids at 30 picomole scale, displacement of fluorescent peptide probe, macrocycle 750 nM
[2] = Panel c, Library 4: best nine scaffolds and 15 additional carboxylic acids, displacement of fluorescent probe

Chain of MDM2 (Q00987 whole entry): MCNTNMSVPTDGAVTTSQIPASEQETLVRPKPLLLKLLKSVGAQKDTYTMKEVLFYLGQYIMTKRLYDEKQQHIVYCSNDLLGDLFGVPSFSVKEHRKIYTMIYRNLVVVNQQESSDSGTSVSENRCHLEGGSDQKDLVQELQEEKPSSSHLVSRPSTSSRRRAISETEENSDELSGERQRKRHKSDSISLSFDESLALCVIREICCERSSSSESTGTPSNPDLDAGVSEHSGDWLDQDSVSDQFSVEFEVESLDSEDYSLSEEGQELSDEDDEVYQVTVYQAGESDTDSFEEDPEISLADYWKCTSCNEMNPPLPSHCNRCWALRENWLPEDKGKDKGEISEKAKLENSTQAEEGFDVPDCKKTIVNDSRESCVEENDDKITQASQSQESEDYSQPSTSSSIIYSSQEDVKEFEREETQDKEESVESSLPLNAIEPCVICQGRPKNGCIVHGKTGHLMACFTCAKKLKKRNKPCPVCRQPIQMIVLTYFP

SMILES	fraction of fluorescent probe displaced [1]	fraction of fluorescent probe displaced [2]
O=C(/C=C/c1ccc(OCc2ccccc2)cc1)NCCN1CC(=O)N[C@@H](Cc2ccc3ccccc3c2)C(=O)NCCSSCCC(=O)N2CCC[C@@H](C2)C1=O [X-Nip-N-Aeg-2-Nal + Acid 110]	0.035	
O=C1CCSSCCNC(=O)[C@H](Cc2ccc3ccccc3c2)NC(=O)[C@@H](CNC(=O)c2ccc(Cl)cc2)NC(=O)C2(CC2)CN1 [X-Amcp-D-Dap-2-Nal + Acid 25]	-0.019	
Cn1cc(C[C@@H]2NC(=O)CN(CCNC(=O)/C=C/c3ccc(OCc4ccccc4)cc3)C(=O)[C@H]3CCCN(C3)C(=O)CCSSCCNC2=O)c2ccccc21 [X-Nip-N-Aeg-Me-Trp + Acid 110]	0.00133	
CCCOc1ccc(C=CC(=O)NCC2NC(=O)C3CN(CCO3)C(=O)CCSSCCNC(=O)C(Cc3cn(C)c4ccccc34)NC2=O)cc1 (stereo not drawn) [X-Cop-Dap-Me-Trp + Acid 118]		0.028
O=C1CCSSCCNC(=O)[C@@H](Cc2c[nH]c3ccccc23)NC(=O)[C@@H](CNC(=O)c2ccc(Cl)cc2)NC(=O)C2(CC2)CN1 [X-Amcp-D-Dap-D-Trp + Acid 25]	0.008	
Cn1cc(C[C@@H]2NC(=O)CN(CCNC(=O)c3ccc4ccccc4c3)C(=O)[C@@H]3CN(CCO3)C(=O)CCSSCCNC2=O)c2ccccc21 [X-Cop-N-Aeg-Me-Trp + Acid 107]	0.00455	
CC(Oc1cccc(Cl)c1)C(=O)NCCN1CC(=O)N[C@@H](Cc2cccc3ccccc23)C(=O)NCCSSCCC(=O)NCC2(CC2)C1=O (some centres unmarked) [X-Amcp-N-Aeg-1-NaI + Acid 113]	0.028	
O=C(/C=C/c1ccc(OCc2ccccc2)cc1)NC[C@@H]1NC(=O)[C@@H]2CN(CCO2)C(=O)CCSSCCNC(=O)[C@H](Cc2c[nH]c3cc(Cl)ccc23)NC1=O [X-Cop-Dap-Cl-Trp + Acid 110]	0.021	
O=C(C=Cc1ccncc1)NCC1NC(=O)C2CN(CCO2)C(=O)CCSSCCNC(=O)C(Cc2c[nH]c3cc(Cl)ccc23)NC1=O (stereo not drawn) [X-Cop-Dap-Cl-Trp + Acid 106]	0.284	
CC(C)c1ccc(/C=C/C(=O)NC[C@@H]2NC(=O)[C@H]3CCCN(C3)C(=O)CCSSCCNC(=O)[C@H](Cc3cccc4ccccc34)NC2=O)cc1 [X-Nip-Dap-1-NaI + Acid 127]		0.0035
O=C1CCSSCCNC(=O)[C@H](Cc2c[nH]c3cc(Cl)ccc23)NC(=O)[C@H](CNC(=O)C2COc3ccccc3O2)NC(=O)C2(CC2)CN1 (some centres unmarked) [X-Amcp-Dap-Cl-Trp + Acid 115]	-0.012	
O=C(NCC1NC(=O)C2CN(CCO2)C(=O)CCSSCCNC(=O)C(Cc2c[nH]c3cc(Cl)ccc23)NC1=O)c1ccc(Cl)cc1 (stereo not drawn) [X-Cop-Dap-Cl-Trp + Acid 25]	0.088	
O=C(NC[C@H]1NC(=O)[C@H]2CCCN(C2)C(=O)CCSSCCNC(=O)[C@H](Cc2cccc3ccccc23)NC1=O)C1COc2ccccc2O1 (stereo partly drawn) [X-Nip-D-Dap-1-NaI + Acid 115]	0.021	
CC(Oc1cccc(Cl)c1)C(=O)NCCN1CC(=O)N[C@@H](Cc2ccc3ccccc3c2)C(=O)NCCSSCCC(=O)NCC2(CC2)C1=O (some centres unmarked) [X-Amcp-N-Aeg-2-Nal + Acid 113]	0.008	
O=C(/C=C/c1ccc2ccccc2c1)NC[C@H]1NC(=O)[C@H]2CCCN(C2)C(=O)CCSSCCNC(=O)[C@@H](Cc2c[nH]c3ccccc23)NC1=O [X-Nip-D-Dap-D-Trp + Acid 112]	0.075	
O=C1CCSSCCNC(=O)[C@H](Cc2c[nH]c3ccccc23)NC(=O)[C@H](CNC(=O)c2ccc(Cl)cc2)NC(=O)C2(CC2)CN1 [X-Amcp-Dap-Trp + Acid 25]	0.048	
CN1C(=O)[C@@H](CNC(=O)/C=C/c2ccncc2)NC(=O)[C@H]2CCCN(C2)C(=O)CCSSCCNC(=O)[C@@H]1Cc1c[nH]c2ccccc12 [X-Nip-D-Dap-NMe-Trp + Acid 106]	-0.00844	
O=C(/C=C/c1ccc(OCc2ccccc2)cc1)NC[C@H]1NC(=O)[C@@H]2CN(CCO2)C(=O)CCSSCCNC(=O)[C@H](Cc2c[nH]c3ccccc23)NC1=O [X-Cop-D-Dap-Trp + Acid 110]	-0.00533	
CN1C(=O)[C@@H](CNC(=O)c2ccc(Cl)s2)NC(=O)[C@H]2CCCN(C2)C(=O)CCSSCCNC(=O)[C@@H]1Cc1c[nH]c2ccccc12 [X-Nip-D-Dap-NMe-Trp + Acid 14]	0.00133	
CN1C(=O)[C@@H](CNC(=O)c2ccc(Cl)s2)NC(=O)[C@@H]2CN(CCO2)C(=O)CCSSCCNC(=O)[C@@H]1Cc1c[nH]c2ccccc12 [X-Cop-D-Dap-NMe-Trp + Acid 14]	-0.019	
CN1C(=O)C(CNC(=O)C2CC2c2ccccc2)NC(=O)C2CN(CCO2)C(=O)CCSSCCNC(=O)C1Cc1c[nH]c2ccccc12 (stereo not drawn) [X-Cop-Dap-NMe-Trp + Acid 105]	0.018	

SMILES	fraction of fluorescent probe displaced [1]	fraction of fluorescent probe displaced [2]
Cn1cc(C[C@@H]2NC(=O)CN(CCNC(=O)c3cccc(Oc4ccccc4)c3)C(=O)C3(CC3)CNC(=O)CCSSCCNC2=O)c2ccccc21 [X-Amcp-N-Aeg-Me-Trp + Acid 111]	0.015	
O=C(/C=C/c1ccc(Cl)c(Cl)c1)NC[C@@H]1NC(=O)[C@@H]2CN(CCO2)C(=O)CCSSCCNC(=O)[C@H](Cc2c[nH]c3cc(Cl)ccc23)NC1=O [X-Cop-Dap-Cl-Trp + Acid 119]		0.126
CC(C)c1ccc(/C=C/C(=O)NC[C@@H]2NC(=O)[C@H]3CCCN(C3)C(=O)CCSSCCNC(=O)[C@H](Cc3cn(C)c4ccccc34)NC2=O)cc1 [X-Nip-Dap-Me-Trp + Acid 127]		0.028
O=C(NC[C@@H]1NC(=O)[C@H]2CCCN(C2)C(=O)CCSSCCNC(=O)[C@H](Cc2ccc3ccccc3c2)NC1=O)c1ccc(Cl)s1 [X-Nip-Dap-2-Nal + Acid 14]	0.015	
O=C(/C=C/c1ccc(Cl)c(Cl)c1)NC[C@@H]1NC(=O)[C@H]2CCCN(C2)C(=O)CCSSCCNC(=O)[C@H](Cc2ccc3ccccc3c2)NC1=O [X-Nip-Dap-2-Nal + Acid 119]		0.020
CCCOc1ccc(/C=C/C(=O)NC[C@@H]2NC(=O)[C@H]3CCCN(C3)C(=O)CCSSCCNC(=O)[C@H](Cc3ccc4ccccc4c3)NC2=O)cc1 [X-Nip-Dap-2-Nal + Acid 118]		0.012
O=C(/C=C/c1cccc(C(F)(F)F)c1)NC[C@@H]1NC(=O)[C@H]2CCCN(C2)C(=O)CCSSCCNC(=O)[C@H](Cc2c[nH]c3ccccc23)NC1=O [X-Nip-Dap-Trp + Acid 122]		0.395
O=C(CCS(=O)(=O)c1ccccc1)NC[C@@H]1NC(=O)C2(CC2)CNC(=O)CCSSCCNC(=O)[C@H](Cc2cccc3ccccc23)NC1=O [X-Amcp-Dap-1-NaI + Acid 114]	-0.00533	
O=C(/C=C/c1ccc(Cl)cc1)NC[C@@H]1NC(=O)[C@H]2CCCN(C2)C(=O)CCSSCCNC(=O)[C@H](Cc2cccc3ccccc23)NC1=O [X-Nip-Dap-1-NaI + Acid 108]	0.041	
O=C(NC[C@H]1NC(=O)[C@@H]2CN(CCO2)C(=O)CCSSCCNC(=O)[C@H](Cc2c[nH]c3ccccc23)NC1=O)c1cccc(Oc2ccccc2)c1 [X-Cop-D-Dap-Trp + Acid 111]	0.015	
O=C(NC[C@@H]1NC(=O)[C@@H]2CN(CCO2)C(=O)CCSSCCNC(=O)[C@@H](Cc2c[nH]c3ccccc23)NC1=O)C1COc2ccccc2O1 (stereo partly drawn) [X-Cop-Dap-D-Trp + Acid 115]	0.008	
O=C(/C=C/c1ccc(Cl)cc1)NC[C@H]1NC(=O)[C@@H]2CN(CCO2)C(=O)CCSSCCNC(=O)[C@H](Cc2cccc3ccccc23)NC1=O [X-Cop-D-Dap-1-NaI + Acid 108]	0.028	
O=C(O)CCS(=O)(=O)c1ccccc1 [Acid 114]	0.035	
O=C1CCSSCCNC(=O)C(Cc2ccc3ccccc3c2)NC(=O)CN(CCNC(=O)C2COc3ccccc3O2)C(=O)C2(CC2)CN1 (mixture of isomers) [X-Amcp-N-Aeg-2-Nal + Acid 115]	0.015	
O=C1CCSSCCNC(=O)C(Cc2ccc3ccccc3c2)NC(=O)C(CNC(=O)C2CC2c2ccccc2)NC(=O)C2(CC2)CN1 [X-Amcp-D-Dap-2-Nal + Acid 105]	-0.00844	
O=C1CCSSCCNC(=O)[C@H](Cc2cccc3ccccc23)NC(=O)[C@@H](CNC(=O)C2COc3ccccc3O2)NC(=O)C2(CC2)CN1 (stereo partly drawn) [X-Amcp-D-Dap-1-NaI + Acid 115]	0.015	
Cn1cc(C[C@@H]2NC(=O)[C@@H](CNC(=O)c3ccc(Cl)cc3)NC(=O)C3(CC3)CNC(=O)CCSSCCNC2=O)c2ccccc21 [X-Amcp-D-Dap-Me-Trp + Acid 25]	-0.00533	
O=C1CCSSCCNC(=O)[C@H](Cc2c[nH]c3cc(Cl)ccc23)NC(=O)CN(CCNC(=O)c2ccc(Cl)cc2)C(=O)C2(CC2)CN1 [X-Amcp-N-Aeg-Cl-Trp + Acid 25]	-0.025	
O=C(/C=C/c1ccc2ccccc2c1)NC[C@H]1NC(=O)[C@@H]2CN(CCO2)C(=O)CCSSCCNC(=O)[C@H](Cc2ccc3ccccc3c2)NC1=O [X-Cop-D-Dap-2-Nal + Acid 112]	0.021	
CC(C)c1ccc(/C=C/C(=O)NC[C@@H]2NC(=O)C3(CC3)CNC(=O)CCSSCCNC(=O)[C@H](Cc3c[nH]c4ccccc34)NC2=O)cc1 [X-Amcp-Dap-Trp + Acid 127]		0.028
